Test results reported in PubChem BioAssay AID248 (DTP/NCI, 2004).
“And” between values parts separate entries of the source, which are not always exact repeats. Identical values can stand only once. Toxic doses and inconclusive results are not listed. Cut-off read from the data, not from the text of the source: active = T/C of 150% or more; inactive = T/C below 125%.

System: L1210 leukemia ip in BDF1 mice, survival T/C
Test: NCI In Vivo Anticancer Drug Screen. Data for tumor model L1210 Leukemia (intraperitoneal) in B6D2F1 (BDF1) mice
Details: endpoint: mean survival time, higher = longer survival
How it was run: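 Survival endpoint. Drug-treated group vs vehicle group, expressed as T divided by C. Tumor passaged by transplantation.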

[1] = dose: 100.0 mg/kg/injection, schedule: Q01DX001 (ip), vehicle: carboxymethylcellulose (CMC)
[2] = dose: 100.0 mg/kg/injection, schedule: Q01DX001 (ip), vehicle: saline
[3] = dose: 200.0 mg/kg/injection, schedule: Q01DX001 (ip), vehicle: carboxymethylcellulose (CMC)
[4] = dose: 200.0 mg/kg/injection, schedule: Q01DX001 (ip), vehicle: saline
[5] = dose: 400.0 mg/kg/injection, schedule: Q01DX001 (ip), vehicle: carboxymethylcellulose (CMC)
[6] = dose: 100.0 mg/kg/injection, schedule: Q04DX003 (ip), vehicle: Klucel (hydroxypropylcellulose) (HPC)
[7] = dose: 200.0 mg/kg/injection, schedule: Q04DX003 (ip), vehicle: Klucel (hydroxypropylcellulose) (HPC)
[8] = dose: 400.0 mg/kg/injection, schedule: Q04DX003 (ip), vehicle: Klucel (hydroxypropylcellulose) (HPC)
[9] = dose: 50.0 mg/kg/injection, schedule: Q01DX001 (ip), vehicle: saline
[10] = dose: 100.0 mg/kg/injection, schedule: Q01DX009 (ip), vehicle: saline with Tween-80
[11] = dose: 200.0 mg/kg/injection, schedule: Q01DX009 (ip), vehicle: saline with Tween-80
[12] = dose: 400.0 mg/kg/injection, schedule: Q01DX009 (ip), vehicle: saline with Tween-80
[13] = dose: 100.0 mg/kg/injection, schedule: Q01DX009 (ip), vehicle: Klucel (hydroxypropylcellulose) (HPC)
[14] = dose: 200.0 mg/kg/injection, schedule: Q01DX009 (ip), vehicle: Klucel (hydroxypropylcellulose) (HPC)
[15] = dose: 400.0 mg/kg/injection, schedule: Q01DX009 (ip), vehicle: Klucel (hydroxypropylcellulose) (HPC)
[16] = dose: 100.0 mg/kg/injection, schedule: Q04DX003 (ip), vehicle: saline
[17] = dose: 50.0 mg/kg/injection, schedule: Q01DX009 (ip), vehicle: saline with Tween-80
[18] = dose: 100.0 mg/kg/injection, schedule: Q01DX001 (ip), vehicle: other

Measured: T/C

Nc1nc2c(ncn2C2OC(CO)C(O)C2O)c(=O)[nH]1 (configuration not stated)
inactive: dose: 5.0 mg/kg/injection, schedule: Q01DX001 (ip), vehicle: saline 102 % of control | dose: 10.0 mg/kg/injection, schedule: Q01DX001 (ip), vehicle: saline 105 % of control | dose: 20.0 mg/kg/injection, schedule: Q01DX001 (ip), vehicle: saline 97 % of control | dose: 40.0 mg/kg/injection, schedule: Q01DX001 (ip), vehicle: saline 103 % of control | dose: 80.0 mg/kg/injection, schedule: Q01DX001 (ip), vehicle: saline 108 % of control | [1] 100 % of control | [2] 101 % of control and 105 % of control | [3] 97 % of control | [4] 101 % of control | [5] 97 % of control

O=S(=O)(Nc1ccc2ccccc2c1)c1cccc2ccccc12
inactive: [6] 101 % of control | [7] 93 % of control | [8] 101 % of control

CCOc1ncc(N)c(OCC)n1
inactive: [9] 112 % of control | [2] 97 % of control | [4] 103 % of control | dose: 400.0 mg/kg/injection, schedule: Q01DX001 (ip), vehicle: saline 100 % of control

CC(=O)Oc1ccc(C2CC(=O)OC2=O)cc1 (configuration not stated)
inactive: [10] 105 % of control | dose: 100.0 mg/kg/injection, schedule: Q04DX003 (ip), vehicle: saline with Tween-80 92 % of control | [11] 97 % of control | dose: 200.0 mg/kg/injection, schedule: Q04DX003 (ip), vehicle: saline with Tween-80 91 % of control | [12] 87 % of control | dose: 400.0 mg/kg/injection, schedule: Q04DX003 (ip), vehicle: saline with Tween-80 92 % of control

CC(=O)CC(=O)N1CCC(C)CC1
inactive: [13] 96 % of control | [6] 103 % of control | [14] 100 % of control | [7] 101 % of control | [15] 95 % of control | [8] 101 % of control

Cc1c(O)c2ccc3ccccc3c2oc1=O
inactive: [16] 97 % of control | dose: 200.0 mg/kg/injection, schedule: Q04DX003 (ip), vehicle: saline 91 % of control

CC(C)(CO)NC(=O)CC1CCCCC1
inactive: [10] 96 % of control | [11] 97 % of control | [12] 97 % of control

CN(C)c1ccc(-c2cc(C(=O)O)c3cc4ccccc4cc3n2)cc1
inactive: [17] 91 % of control | [10] 96 % of control | dose: 100.0 mg/kg/injection, schedule: Q04DX002 (ip), vehicle: saline with Tween-80 92 % of control | [11] 88 % of control | dose: 200.0 mg/kg/injection, schedule: Q04DX002 (ip), vehicle: saline with Tween-80 92 % of control

CC(=O)CC(=O)N(C(=O)CC(C)=O)c1ccccc1C
inactive: [17] 105 % of control | [10] 105 % of control | [11] 94 % of control

Cc1ccc(CN(C)C)c(C(O)c2ccccc2)c1 (configuration not stated)
inactive: [9] 96 % of control | [2] 96 % of control

CCCCOC(=O)c1[nH]cnc1/N=N\N(C)C
inactive: dose: 10.0 mg/kg/injection, schedule: Q01DX009 (ip), vehicle: carboxymethylcellulose (CMC) 100 % of control | dose: 18.0 mg/kg/injection, schedule: Q01DX001 (ip), vehicle: other 98 % of control | dose: 20.0 mg/kg/injection, schedule: Q01DX009 (ip), vehicle: carboxymethylcellulose (CMC) 109 % of control | dose: 28.0 mg/kg/injection, schedule: Q01DX001 (ip), vehicle: other 93 % of control | dose: 40.0 mg/kg/injection, schedule: Q01DX009 (ip), vehicle: carboxymethylcellulose (CMC) 114 % of control | dose: 42.0 mg/kg/injection, schedule: Q01DX001 (ip), vehicle: other 100 % of control | dose: 63.0 mg/kg/injection, schedule: Q01DX001 (ip), vehicle: other 102 % of control | dose: 72.0 mg/kg/injection, schedule: Q01DX015 (ip), vehicle: other 110 % of control | [18] 111 % of control | dose: 120.0 mg/kg/injection, schedule: Q01DX015 (ip), vehicle: other 101 % of control

O=C(C[n+]1cc2ccccc2c2ccccc21)c1ccccc1
inactive: [13] 95 % of control

CSC(=NCc1ccccc1)NC1CCCCC1
inactive: dose: 12.5 mg/kg/injection, schedule: Q04DX002 (ip), vehicle: Klucel (hydroxypropylcellulose) (HPC) 100 % of control | dose: 25.0 mg/kg/injection, schedule: Q04DX002 (ip), vehicle: Klucel (hydroxypropylcellulose) (HPC) 107 % of control | dose: 50.0 mg/kg/injection, schedule: Q04DX002 (ip), vehicle: Klucel (hydroxypropylcellulose) (HPC) 107 % of control

O=c1[nH]c(=O)c(C2OC(CO)C(O)C2O)co1 (configuration not stated)
inactive: dose: 6.25 mg/kg/injection, schedule: Q04DX003 (ip), vehicle: saline with Tween-80 123 % of control | dose: 12.5 mg/kg/injection, schedule: Q04DX003 (ip), vehicle: saline with Tween-80 106 % of control

CCCCCCCC(O)CCCCC (configuration not stated)
inactive: [13] 104 % of control | [6] 93 % of control | [14] 98 % of control | [7] 104 % of control | [15] 102 % of control | [8] 89 % of control

CC(=O)Oc1ccc2ccccc2c1/C=C/c1ccncc1
inactive: dose: 6.25 mg/kg/injection, schedule: Q01DX009 (ip), vehicle: saline 104 % of control | dose: 12.5 mg/kg/injection, schedule: Q01DX009 (ip), vehicle: saline 102 % of control | dose: 25.0 mg/kg/injection, schedule: Q01DX009 (ip), vehicle: saline 96 % of control and 105 % of control | dose: 25.0 mg/kg/injection, schedule: Q04DX003 (ip), vehicle: saline 115 % of control | dose: 50.0 mg/kg/injection, schedule: Q01DX009 (ip), vehicle: saline 95 % of control | dose: 50.0 mg/kg/injection, schedule: Q04DX003 (ip), vehicle: saline 93 % of control | [16] 94 % of control and 90 % of control

N#CCCC(CCC#N)(S(=O)(=O)Cc1ccccc1)S(=O)(=O)Cc1ccccc1
inactive: [1] 101 % of control | [3] 101 % of control | [5] 89 % of control

c1ccc(-c2ccn(C3CCCCC3)c2-c2ccccc2)cc1
inactive: dose: 100.0 mg/kg/injection, schedule: Q01DX001 (ip), vehicle: saline with Tween-80 87 % of control | dose: 200.0 mg/kg/injection, schedule: Q01DX001 (ip), vehicle: saline with Tween-80 91 % of control | dose: 400.0 mg/kg/injection, schedule: Q01DX001 (ip), vehicle: saline with Tween-80 92 % of control

CCOC(=O)CSCn1ncc2ccc([N+](=O)[O-])cc21
inactive: [18] 95 % of control | dose: 200.0 mg/kg/injection, schedule: Q01DX001 (ip), vehicle: other 95 % of control | dose: 400.0 mg/kg/injection, schedule: Q01DX001 (ip), vehicle: other 97 % of control
